From patent US20260317333A1, “Heteroaryl Compounds as Ligand Directed Degraders of IRAK4” (Celgene Corporation, priority 2023, published 2026) come the findings set out here.

Counter-ions that a name gives are not always drawn.

The target of assay [1] is T1, IRAK4 (Homo sapiens, UniProt Q9NWZ3).
T1 sequence (Q9NWZ3 1-460): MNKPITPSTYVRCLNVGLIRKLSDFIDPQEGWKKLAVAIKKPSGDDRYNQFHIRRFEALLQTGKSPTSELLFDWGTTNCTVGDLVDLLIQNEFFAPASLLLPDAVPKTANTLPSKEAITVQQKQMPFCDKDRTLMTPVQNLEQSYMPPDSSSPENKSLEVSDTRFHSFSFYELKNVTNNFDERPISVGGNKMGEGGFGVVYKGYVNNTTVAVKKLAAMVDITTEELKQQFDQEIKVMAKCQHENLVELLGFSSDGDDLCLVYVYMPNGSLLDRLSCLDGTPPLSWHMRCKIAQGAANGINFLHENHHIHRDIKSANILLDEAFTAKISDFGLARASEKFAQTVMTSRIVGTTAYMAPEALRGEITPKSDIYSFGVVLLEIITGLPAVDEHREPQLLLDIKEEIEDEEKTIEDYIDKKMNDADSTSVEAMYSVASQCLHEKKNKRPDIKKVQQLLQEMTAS
The assay can be described thus: ALE THP1 HTRF (IRAK4 degradation in THP1 cells, HTRF with anti-IRAK4 antibodies). Type of assay: cell-based. To be noted: THP1 cell lysate; for DC50: read-out: ALE THP1 HTRF EC50. The arrangement: THP1 Homogeneous Time Resolved Fluorescence (ALE THP1 HTRF) Procedure; endogenous in cells; host or cells: THP1. As to the method: Cell culture media was prepared in a tissue culture hood in a sterile environment by adding 10% FBS and 1% Penicillin Streptomycin to 500 mL no phenol red RPMI 1640 media. The media was filtered through a Nalgene Bottle Top Filter and stored at 4° C.
For Homogenous Time Resolved Fluorescence (HTRF) assays, a Cisbio HTRF kit was used, which included: Lysis Buffer #1 4×, Blocking Reagent #3 100×, 20× Antibody 1 (Anti-IRAK4 d2), 20× Antibody 2 (Anti-IRAK4 k), and Detection Buffer.
4× Lysis Buffer was stored at 4° C. For use as 1× Lysis buffer, the 4× solution was diluted with de-ionized water (distilled water, Gibco Cat. #15230279) and 100× Blocking Reagent in a 1:3:0.04 volume ratio.
20× Antibody Solution aliquots were stored at −80° C. and the Detection Buffer was stored at 4° C. For use as a 1× Antibody Solution, the 20× Antibody Solution aliquot was diluted with Detection Buffer in a 1:19 volume ratio.
Cells were lysed at room temperature for 45 min with shaking. A BCA protein assay was performed and normalization was conducted to the desired total protein concentration with 1× lysis buffer. Next, 1× Antibody Solutions were prepared by adding 380 μL Detection Buffer to 20 μL 20× Antibody Solution aliquots and mixing well. 1× Antibody Solutions were combined 1:1 and briefly vortexed. For control wells, 20 μL 1× anti IRAK4-k Antibody Solution was saved. The 384-well plate (ProxiPlate-384 Plus, Perkin Elmer Cat. #6008289) was loaded by adding 4 μL of the mixed Antibody Solution to empty wells using a single channel repeater. Using a multi-channel repeater, 16 μL lysate was added per well, and any bubbles that were formed were popped with 20 μL pipette tips and Kimwipe edges. In column 10, triplicates of each control were prepared. In wells A10, B10, and C10, buffer control was prepared by adding 16 μL Lysis Buffer and 4 μL Detection Buffer. In wells D10, E10, and F10, cryptate control was prepared by adding 16 μL Lysis Buffer, 2 μL Detection Buffer, and 2 μL 1× anti-IRAK4-k Antibody Solution. In wells G10, H10, and I10, a negative control was prepared by adding 16 μL Lysis Buffer and 4 μL mixed Antibody Solution. The plate was sealed with a clear seal and covered with an aluminum lid. The plate was spun down at 800 g for 5 min and incubated in the dark at room temperature overnight. The next day, the plate was spun down at 800 g for 5 min. The samples were analyzed by a plate reader (Envision, PerkinElmer) using the Desnor 384 HTRF program.

Assay [2] concerns the target T1, IRAK4. Nature of the assay: IRAK4 PhosphoSens Biochemical Assay (BIOCHEM). The conditions noted are these: 200 μM ATP; 10 μM peptide substrate AQT0326; 1 nM IRAK4; room temperature; 240 minutes. As to the method: The PhosphoSens® biochemical assay was performed as described by the vendor (AssayQuant Technologies Inc. Marlborough, MA). A 1.25× stock solution of IRAK4 (PV4002, ThermoFisher Scientific, Waltham, MA) and a 5× stock solution of ATP and Sox conjugated peptide substrate, AQT0326 (CSKS-AQT0326B, AssayQuant Technologies), were prepared in 1× kinase reaction buffer consisting of 50 mM HEPES, pH 7.5, 0.01% Brij-35, 0.5 mM EGTA, 20 mM MgCl2 and 1 mM DTT. 10 μL of the ATP and substrate solution mix, for a final concentration of 200 μM ATP and 10 μM peptide substrate, was added to a Corning 3574 384-well, white, non-binding surface microtiter plate containing 0.5 μL of serially diluted test compounds prepared in DMSO. The reactions were started with the addition of 40 μL of the enzyme solution, for a final IRAK4 concentration of 1 nM, and monitored every 71 seconds for 240 minutes at λEX 360/λEM 485 in a BioTek Synergy H4 plate reader (Agilent Technologies, Santa Clara, CA) at room temperature. The initial linear portions of the progress curves were fit according to a linear equation to yield the slopes and converted to % inhibition based on a value of 100% activity for the no inhibitor treated control. IC50 values of each compound were obtained by fitting the % inhibition-compound concentration curves using Dotmatics software (Dotmatics, Bishops Stortford, Hertfordshire, England).

What is called IC50 is the point on the concentration scale where inhibition reaches its midpoint.

Consider `N[C@@H]1C[C@@H](F)CN(c2ccn3ncc(C(=O)Nc4cn([C@H]5CC[C@H](C(=O)N6CCC(CNc7cccc(C8CCC(=O)NC8=O)c7)CC6)CC5)nc4C(F)(F)F)c3n2)C1` (stereo partly drawn) [Compound P-1, N-[1-[4-[4-[[3-(2,6-dioxo-3-piperidyl)anilino]methyl]piperidine-1-carbonyl]cyclohexyl]-3-(trifluoromethyl)pyrazol-4-yl]-5-[(3R,5R)-3-amino-5-fluoro-1-piperidyl]pyrazolo[1,5-a]pyrimidine-3-carboxamide hydrochloride salt], for which, at IRAK4 [1], the “ALE THP1 HTRF YMIN” value turned out to be 10% and the DC50 amounted to 7 nM. Further, the IC50 at IRAK4 [2] was determined as 0.4 nM.
For `N[C@@H]1C[C@@H](F)CN(c2ccn3ncc(C(=O)Nc4cn([C@H]5CC[C@H](C(=O)N6CCC(CNc7ccc(C8CCC(=O)NC8=O)cc7)CC6)CC5)nc4C(F)(F)F)c3n2)C1` (stereo partly drawn) [Compound P-2, N-[1-[4-[4-[[4-(2,6-Dioxo-3-piperidyl)anilino]methyl]piperidine-1-carbonyl]cyclohexyl]-3-(trifluoromethyl)pyrazol-4-yl]-5-[(3R,5R)-3-amino-5-fluoro-1-piperidyl]pyrazolo[1,5-a]pyrimidine-3-carboxamide hydrochloride], in that order: 68%, 96 nM and 0.3 nM.
As for `N[C@@H]1C[C@@H](F)CN(c2ccn3ncc(C(=O)Nc4cn([C@H]5CC[C@H](CN6CCC(CNc7ccc(C8CCC(=O)NC8=O)cc7)CC6)CC5)nc4C(F)(F)F)c3n2)C1` (some centres unmarked) [Compound P-3], at IRAK4 [1], the “ALE THP1 HTRF YMIN” value was 81% and the DC50 came to 177 nM. Further, the IC50 at IRAK4 [2] is 0.3 nM.
In the case of `N[C@@H]1C[C@@H](F)CN(c2ccn3ncc(C(=O)Nc4cn([C@H]5CC[C@H](C(=O)N6CCC(Nc7ccc(C8CCC(=O)NC8=O)cc7)CC6)CC5)nc4C(F)(F)F)c3n2)C1` (some centres unmarked) [Compound P-7], at IRAK4 [1], the “ALE THP1 HTRF YMIN” value was 52% and the DC50 was more than 10000 nM. In addition, at IRAK4 [2], the IC50 is 0.3 nM.
As for `N[C@@H]1C[C@@H](F)CN(c2ccn3ncc(C(=O)Nc4cn([C@H]5CC[C@H](C(=O)N6CCC(Nc7cccc(C8CCC(=O)NC8=O)c7)CC6)CC5)nc4C(F)(F)F)c3n2)C1` (some centres unmarked) [Compound P-9], on IRAK4 [1], the “ALE THP1 HTRF YMIN” value is listed as 86% and the DC50 was more than 10000 nM. Besides, the IC50 at IRAK4 [2] turned out to be 0.3 nM.
With `N[C@@H]1C[C@@H](F)CN(c2ccn3ncc(C(=O)Nc4cn([C@H]5CC[C@H](CN6CCN(c7ccc(C8CCC(=O)NC8=O)cc7)CC6)CC5)nc4C(F)(F)F)c3n2)C1` (some centres unmarked) [Compound P-10], at IRAK4 [1], the “ALE THP1 HTRF YMIN” value stood at 20% and the DC50 was 964 nM. For the same molecule, the IC50 on IRAK4 [2] worked out at 0.6 nM.
For `N[C@@H]1C[C@@H](F)CN(c2ccn3ncc(C(=O)Nc4cn([C@H]5CC[C@H](CCN6CCC(Nc7cccc(C8CCC(=O)NC8=O)c7)CC6)CC5)nc4C(F)F)c3n2)C1` (stereo partly drawn) [Compound P-24, 5-((3R,5R)-3-Amino-5-fluoropiperidin-1-yl)-N-(3-(difluoromethyl)-1-((1r,4r)-4-(2-(4-((3-(2,6-dioxopiperidin-3-yl)phenyl)amino)piperidin-1-yl)ethyl)cyclohexyl)-1H-pyrazol-4-yl) pyrazolo[1,5-a]pyrimidine-3-carboxamide dihydrochloride], on IRAK4 [1], the “ALE THP1 HTRF YMIN” value stood at 12% and the DC50 was 12 nM.
Regarding `N[C@@H]1C[C@@H](F)CN(c2ccn3ncc(C(=O)Nc4cn([C@H]5CC[C@H](C(=O)NC6CCN(c7ccc(C8CCC(=O)NC8=O)nc7)CC6)CC5)nc4C(F)F)c3n2)C1` (some centres unmarked) [Compound P-25], on IRAK4 [1], the “ALE THP1 HTRF YMIN” value was 15% and the DC50 stood at 6 nM.
For `N[C@@H]1C[C@@H](F)CN(c2ccn3ncc(C(=O)Nc4cn([C@H]5CC[C@H](CCN6CCC7(CC6)CN(c6cccc(C8CCC(=O)NC8=O)c6)C7)CC5)nc4C(F)F)c3n2)C1` (some centres unmarked) [Compound P-26], in that order: 7% and 15 nM.
In the case of `N[C@@H]1C[C@@H](F)CN(c2ccn3ncc(C(=O)Nc4cn(C5CCN(CCN6CCN(c7ccc(C8CCC(=O)NC8=O)cc7)CC6)CC5)nc4C(F)F)c3n2)C1` (stereo partly drawn) [Compound P-27, 5-((3R,5R)-3-Amino-5-fluoropiperidin-1-yl)-N-(3-(difluoromethyl)-1-(1-(2-(4-(4-(2,6-dioxopiperidin-3-yl)phenyl)piperazin-1-yl)ethyl)piperidin-4-yl)-1H-pyrazol-4-yl) pyrazolo[1,5-a]pyrimidine-3-carboxamide trihydrochloride], at IRAK4 [1], the “ALE THP1 HTRF YMIN” value is reported as 16% and the DC50 worked out at 10 nM.
Consider `N[C@@H]1C[C@@H](F)CN(c2ccn3ncc(C(=O)Nc4cn([C@H]5CC[C@H](CCN6CCC[C@H](c7ccc(C8CCC(=O)NC8=O)cc7)C6)CC5)nc4C(F)F)c3n2)C1` (some centres unmarked) [Compound P-28], for which, on IRAK4 [1], the “ALE THP1 HTRF YMIN” value is more than 95% and the DC50 is more than 10000 nM.
Consider `N[C@@H]1C[C@@H](F)CN(c2ccn3ncc(C(=O)Nc4cn([C@H]5CC[C@H](C(=O)N[C@H]6CC[C@@H](c7ccc(C8CCC(=O)NC8=O)nc7)CC6)CC5)nc4C(F)F)c3n2)C1` (some centres unmarked) [Compound P-30], for which, on IRAK4 [1], the “ALE THP1 HTRF YMIN” value is on record as more than 95% and the DC50 was more than 10000 nM.
Take `N[C@@H]1C[C@@H](F)CN(c2ccn3ncc(C(=O)Nc4cn([C@H]5CC[C@H](C(=O)N[C@H]6CC[C@@H](c7ccc(C8CCC(=O)NC8=O)cn7)CC6)CC5)nc4C(F)F)c3n2)C1` (some centres unmarked) [Compound P-31]: at IRAK4 [1], the “ALE THP1 HTRF YMIN” value was more than 95% and the DC50 is more than 10000 nM.
For `N[C@@H]1C[C@@H](F)CN(c2ccn3ncc(C(=O)Nc4cn([C@H]5CC[C@H](C(=O)NC6CCN(c7ccc(C8CCC(=O)NC8=O)cn7)CC6)CC5)nc4C(F)F)c3n2)C1` (stereo partly drawn) [Compound P-32, N-[3-(Difluoromethyl)-1-[4-[[1-[5-(2,6-dioxo-3-piperidyl)-2-pyridyl]-4-piperidyl]carbamoyl]cyclohexyl]pyrazol-4-yl]-5-[(3R,5R)-3-amino-5-fluoro-1-piperidyl]pyrazolo[1,5-a]pyrimidine-3-carboxamide hydrochloride] the same measures were 21% and 5 nM.
As to `N[C@@H]1C[C@@H](F)CN(c2ccn3ncc(C(=O)Nc4cn([C@H]5CC[C@H](C(=O)N[C@H]6CC[C@H](c7ccc(C8CCC(=O)NC8=O)cn7)CC6)CC5)nc4C(F)F)c3n2)C1` (some centres unmarked) [Compound P-33], on IRAK4 [1], the “ALE THP1 HTRF YMIN” value came to 22% and the DC50 was determined as 3 nM.
Regarding `N[C@@H]1C[C@@H](F)CN(c2ccn3ncc(C(=O)Nc4cn([C@H]5CC[C@H](C(=O)N[C@H]6CC[C@H](c7ccc(C8CCC(=O)NC8=O)nc7)CC6)CC5)nc4C(F)F)c3n2)C1` (some centres unmarked) [Compound P-34], on IRAK4 [1], the “ALE THP1 HTRF YMIN” value is reported as 13% and the DC50 turned out to be 5 nM.
